Among the data in ChEMBL document CHEMBL1129015, “The design, binding affinity prediction and synthesis of macrocyclic angiotensin II AT1 and AT2 receptor antagonists” (Bioorg Med Chem Lett, 1996) are IC50 values, retold here.

Assay [1] has as its target T1, Type-2 angiotensin II receptor (Rattus norvegicus, UniProt P35351).
T1 sequence (P35351 whole entry): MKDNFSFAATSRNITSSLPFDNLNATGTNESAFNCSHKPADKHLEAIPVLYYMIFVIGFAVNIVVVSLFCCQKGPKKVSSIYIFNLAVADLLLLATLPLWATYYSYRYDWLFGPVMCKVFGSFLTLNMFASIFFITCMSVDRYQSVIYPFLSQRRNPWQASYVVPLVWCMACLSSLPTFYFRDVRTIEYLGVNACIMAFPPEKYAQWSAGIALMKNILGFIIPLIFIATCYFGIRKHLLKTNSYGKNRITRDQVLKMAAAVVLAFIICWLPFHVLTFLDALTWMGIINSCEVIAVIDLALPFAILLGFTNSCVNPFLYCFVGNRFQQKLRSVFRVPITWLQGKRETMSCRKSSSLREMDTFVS
Kind of assay: Inhibition of [125I]-Sar1-Ile8-Ang II binding to rat midbrain Angiotensin II receptor type 2.

The target of assay [2] is T2, Type-1 angiotensin II receptor (Oryctolagus cuniculus, UniProt P34976).
T2 sequence (P34976 whole entry): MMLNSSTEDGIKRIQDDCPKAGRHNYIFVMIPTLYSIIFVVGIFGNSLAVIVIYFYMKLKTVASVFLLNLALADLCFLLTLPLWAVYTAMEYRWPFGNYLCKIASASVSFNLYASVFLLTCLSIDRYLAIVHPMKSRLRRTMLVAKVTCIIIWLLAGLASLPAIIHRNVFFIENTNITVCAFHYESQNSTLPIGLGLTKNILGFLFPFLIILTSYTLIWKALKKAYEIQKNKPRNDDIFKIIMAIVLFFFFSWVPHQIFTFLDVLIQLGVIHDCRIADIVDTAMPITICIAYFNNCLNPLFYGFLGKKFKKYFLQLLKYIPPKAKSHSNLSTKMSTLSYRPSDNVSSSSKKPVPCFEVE
Kind of assay: Inhibition of [125I]-Sar1-Ile8-Ang II binding to Angiotensin II receptor type 1 from rabbit aorta.

Each structure is given as a SMILES string.

As to `CCCc1nc2ccc3cc2c(=O)n1Cc1ccc(cc1)-c1ccccc1S(=O)(=O)NC(=O)CCCCCN3C(=O)OCc1ccccc1`, the IC50 is 4000 nM in assay [1] and 23 nM in assay [2].

For the compound `CCCc1nc2ccc(NC(=O)c3ccccc3)cc2c(=O)n1Cc1ccc(-c2ccccc2-c2nnn[nH]2)cc1`, the IC50 in assay [1] was found to be 3000 nM; in assay [2] it was 0.4 nM.

For the compound `CCCc1nc2ccc(NC(=O)NC(C)C)cc2c(=O)n1Cc1ccc(-c2ccccc2S(=O)(=O)NC(=O)c2ccccc2)cc1`, the values for the IC50 in assay [1] and in assay [2] were 18 nM and 0.9 nM, respectively.

As for `CCCc1ccc2c(c1)-c1ccc(cc1)Cn1c(CCC)nc3ccc(cc3c1=O)N(C(=O)OCc1ccccc1)CCCCCCCC(=O)NS2(=O)=O`, the 50% inhibitory concentration (IC50) was 20 nM in assay [1] and 30 nM in assay [2].

On to `CCCCCN(C(=O)c1ccccc1)c1ccc2nc(CCC)n(Cc3ccc(-c4ccccc4S(=O)(=O)NC(=O)c4ccccc4)cc3)c(=O)c2c1`, for which the IC50 in assay [1] is 350 nM; in assay [2], 11 nM.

As to `CCCc1nc2ccc3cc2c(=O)n1Cc1ccc(cc1)-c1ccccc1S(=O)(=O)NC(=O)CCCCCCCN3C(=O)c1ccccc1`, the IC50 was 49 nM in assay [1] and 1.3 nM in assay [2].

Consider `CCCc1nc2ccc(NC(=O)NC(C)C)cc2c(=O)n1Cc1ccc(-c2ccccc2S(=O)(=O)NC(C)=O)cc1`, for which the 50% inhibitory concentration (IC50) in assay [1] stood at 630 nM; in assay [2] it was 8.8 nM.

`CCCc1ccc2c(c1)-c1ccc(cc1)Cn1c(CCC)nc3ccc(cc3c1=O)NCCCCCCCC(=O)NS2(=O)=O`: the concentration for half-maximal inhibition (IC50) in assay [1] was 24 nM; in assay [2], 3.9 nM.

For the compound `CCCc1nc2ccc3cc2c(=O)n1Cc1ccc(cc1)-c1ccccc1S(=O)(=O)NC(=O)CCCCCCCN3`, the IC50 in assay [1] is 200 nM; in assay [2], 0.3 nM.

Turning to `CCCc1nc2ccc3cc2c(=O)n1Cc1ccc(cc1)-c1ccccc1S(=O)(=O)NC(=O)CCCCCCCN3C(=O)OCc1ccccc1`, the half-maximal inhibitory concentration (IC50) was found to be 75 nM in assay [1] and 1.5 nM in assay [2].
